This assay relates to single-round infectious HIV-1 reporter virus. Kind of assay: microbe, parasite or virus in culture. In kind it is cell-based. The following applies: for % Inhibition @ 10 μM: Table 4; for % Inhibition @ 10 μM / % Inhibition @ 10 uM: HeLa CD4 CCR5 cells, luciferase reporter virus, 3 days after infection; for % Inhibition @ 10 uM: Table 1, Examples 35-90. From the text:
The virus infection was quantified 3 days after infection by measuring luciferase expression from integrated viral DNA in the infected cells (Chen et al, Ref. 41).
Virus production—Human embryonic Kidney cell line, 293, propagated in Dulbecco's Modified Eagle Medium (Life Technologies, Gaithersburg, Md.) containing 10% fetal Bovine serum (FBS, Sigma, St. Louis, Mo.).
Virus infection—Human epithelial cell line, HeLa, expressing the HIV-1 receptors CD4 and CCR5 was propagated in Dulbecco's Modified Eagle Medium (Life Technologies, Gaithersburg, Md.) containing 10% fetal Bovine serum (FBS, Sigma, St. Louis, Mo.) and supplemented with 0.2 mg/ml Geneticin (Life Technologies, Gaithersburg, Md.) and 0.4 mg/ml Zeocin (Invitrogen, Carlsbad, Calif.).
Virus-Replication defective reporter virus was produced by co-transfecting human embryonic Kidney 293 cells with an HIV-1 envelope DNA expression vector and a proviral cDNA containing an envelope deletion mutation and the luciferase reporter gene inserted in place of HIV-1 nef sequences (Chen, 1994). Transfections were performed using lipofectAMINE PLUS reagent as described by the manufacturer (Life Technologies, Gaithersburg, Md.).
1. Compound was added to HeLa CD4 CCR5 cells plated in 96 well plates at a cell density of 5×10^4 cells per well in 100 ul Dulbecco's Modified Eagle Medium containing 10% fetal Bovine serum at a concentration of <20 uM.
2. 100 ul of replication defective reporter virus in Dulbecco's Modified Eagle Medium was then added to the plated cells and compound at a multiplicity of infection (MOI) of 0.01, resulting in a final volume of 200 ul per well and a final compound concentration of <10 uM.
3. Samples were harvested 72 hours after infection.
4. Viral infection was monitored by measuring luciferase expression from viral DNA in the infected cells using a luciferase reporter gene assay kit (Roche Molecular Biochemicals, Indianapolis, Ind.). Infected cell supernatants were removed and 50 ul of Dulbecco's Modified Eagle Medium (without phenol red) and 50 ul of luciferase assay reagent reconstituted as described by the manufacturer (Roche Molecular Biochemicals, Indianapolis, Ind.) was added per well. Luciferase activity was then quantified by measuring luminescence using a Wallac microbeta scintillation counter.
Background: A reporter such as luciferase makes a cellular process visible.

On to `CC1CN(C(=O)c2ccccn2)CCN1C(=O)C(=O)c1c[nH]c2c(F)ccc(F)c12` (centres unmarked) [Entry 196], for which the “% Inhibition @ 10 μM” value is over 98%.

In the case of `Cc1ccc(F)c2c(C(=O)C(=O)N3CCN(C(=O)c4ccccn4)CC3C)c[nH]c12` (centres unmarked) [Entry 197], the “% Inhibition @ 10 μM” value was found to be 93%.

Regarding `CC1CN(C(=O)c2ccc(Br)o2)CCN1C(=O)C(=O)c1c[nH]c2c(F)ccc(F)c12` (centres unmarked) [Entry 198], the “% Inhibition @ 10 μM” value was over 98%.

As to `COc1ccc(OC)c2c(C(=O)C(=O)N3CCN(C(=O)c4ccc(Br)o4)CC3C)c[nH]c12` (centres unmarked) [Entry 199], the “% Inhibition @ 10 μM” value is over 98%.

On to `COC(=O)c1cccc2c(C(=O)C(=O)N3CCN(C(=O)c4ccc(Br)o4)CC3C)c[nH]c12` (centres unmarked) [Entry 200], for which the “% Inhibition @ 10 μM” value is recorded as over 98%.

Consider `CC1CN(C(=O)c2ccccn2)CCN1C(=O)C(=O)c1c[nH]c2c(F)ccc(F)c12` (centres unmarked) [Entry 201], for which the “% Inhibition @ 10 μM” value is recorded as over 98%.

For `CC1CN(C(=O)c2ccccn2)CCN1C(=O)C(=O)c1c[nH]c2cccc(F)c12` (centres unmarked) [Entry 202], the “% Inhibition @ 10 μM” value was over 98%.

On to `CC1CN(C(=O)c2ccccn2)CCN1C(=O)C(=O)c1c[nH]c2cccc(Cl)c12` (centres unmarked) [Entry 203], for which the “% Inhibition @ 10 μM” value is 80%.

Regarding `CC1CN(C(=O)c2ccccn2)CCN1C(=O)C(=O)c1c[nH]c2cccc(Br)c12` (centres unmarked) [Entry 204], the “% Inhibition @ 10 μM” value stood at 50%.

With `CC1CN(C(=O)c2ccccn2)CCN1C(=O)C(=O)c1c[nH]c2ccc(F)cc12` (centres unmarked) [Entry 205], the “% Inhibition @ 10 μM” value stood at 61%.

Take `CC1CN(C(=O)c2ccccn2)CCN1C(=O)C(=O)c1c[nH]c2cc(Cl)ccc12` (centres unmarked) [Entry 206]: the “% Inhibition @ 10 μM” value is on record as 88%.

Consider `CC1CN(C(=O)c2ccccn2)CCN1C(=O)C(=O)c1c[nH]c2c(F)cccc12` (centres unmarked) [Entry 207], for which the “% Inhibition @ 10 μM” value is over 98%.

Turning to `COc1cccc2c(C(=O)C(=O)N3CCN(C(=O)c4ccccn4)C[C@H]3C)c[nH]c12` [Entry 208], the “% Inhibition @ 10 μM” value is recorded as over 98%.

In the case of `Cc1cccc2c(C(=O)C(=O)N3CCN(C(=O)c4ccccn4)C[C@H]3C)c[nH]c12` [Entry 209], the “% Inhibition @ 10 μM” value is recorded as over 98%.

Take `CCc1cccc2c(C(=O)C(=O)N3CCN(C(=O)c4ccccn4)C[C@H]3C)c[nH]c12` [Entry 210]: the “% Inhibition @ 10 μM” value is reported as 88%.

With `COc1ccc(Cl)c2[nH]cc(C(=O)C(=O)N3CCN(C(=O)c4ccccn4)C[C@H]3C)c12` [Entry 211], the “% Inhibition @ 10 μM” value was over 98%.

Regarding `COc1cccc2[nH]cc(C(=O)C(=O)N3CCN(C(=O)c4ccccn4)C[C@H]3C)c12` [Entry 213], the “% Inhibition @ 10 μM” value was over 98%.

For the compound `COc1ccc(Br)c2[nH]cc(C(=O)C(=O)N3CCN(C(=O)c4ccccn4)C[C@H]3C)c12` [Entry 214], the “% Inhibition @ 10 μM” value was over 98%.

`COc1ccc(F)c2c(C(=O)C(=O)N3CCN(C(=O)c4ccccn4)C[C@H]3C)c[nH]c12` [Entry 215]: the “% Inhibition @ 10 μM” value was over 98%.

On to `Nc1cccc(C(=O)N2CCN(C(=O)C(=O)c3c[nH]c4ccccc34)CC2)c1` [Example 72], for which the “% Inhibition @ 10 uM” value amounted to 87%.

With `Nc1cccc(C(=O)N2CCN(C(=O)C(=O)c3c[nH]c4c(F)ccc(F)c34)CC2)c1` [Example 73], the “% Inhibition @ 10 uM” value is listed as over 98%.

Take `CC1CN(C(=O)c2cccc(N)c2)CCN1C(=O)C(=O)c1c[nH]c2c(F)ccc(F)c12` (centres unmarked) [Example 74]: the “% Inhibition @ 10 uM” value is on record as over 98%.

For the compound `CC1CN(C(=O)c2ccc(N)cc2)CCN1C(=O)C(=O)c1c[nH]c2c(F)ccc(F)c12` (centres unmarked) [Example 75], the “% Inhibition @ 10 uM” value is given as over 98%.

With `CC1CN(C(=O)c2cccc(N)c2)CCN1C(=O)C(=O)c1c[nH]c2cccc(F)c12` (centres unmarked) [Example 76], the “% Inhibition @ 10 uM” value was over 98%.

Consider `COc1ccc(Cl)c2[nH]cc(C(=O)C(=O)N3CCN(C(=O)c4cccc(N)c4)CC3C)c12` (centres unmarked) [Example 77], for which the “% Inhibition @ 10 uM” value is recorded as over 98%.

For the compound `COc1ccc(Cl)c2[nH]cc(C(=O)C(=O)N3CCN(C(=O)c4ccc(N)cc4)CC3C)c12` (centres unmarked) [Example 78], the “% Inhibition @ 10 uM” value is on record as over 98%.

Consider `COc1cccc2[nH]cc(C(=O)C(=O)N3CCN(C(=O)c4cccc(N)c4)CC3C)c12` (centres unmarked) [Example 79], for which the “% Inhibition @ 10 uM” value is over 98%.

Turning to `COc1ccc(F)c2c(C(=O)C(=O)N3CCN(C(=O)c4cccc(N)c4)CC3C)c[nH]c12` (centres unmarked) [Example 80], the “% Inhibition @ 10 uM” value is over 98%.

As for `COc1ccc(F)c2c(C(=O)C(=O)N3CCN(C(=O)c4ccc(N)cc4)CC3C)c[nH]c12` (centres unmarked) [Example 81], the “% Inhibition @ 10 uM” value is listed as over 98%.

In the case of `CC(=O)Oc1ccccc1C(=O)N1CCN(C(=O)C(=O)c2c[nH]c3cccc(F)c23)CC1` [Example 82], the “% Inhibition @ 10 uM” value amounted to 91%.

For `CC(=O)Oc1cccc(C(=O)N2CCN(C(=O)C(=O)c3c[nH]c4cccc(F)c34)CC2)c1` [Example 83], the “% Inhibition @ 10 uM” value is over 98%.

As for `CC(=O)Oc1ccc(C(=O)N2CCN(C(=O)C(=O)c3c[nH]c4cccc(F)c34)CC2)cc1` [Example 84], the “% Inhibition @ 10 uM” value was determined as 98%.

As to `CC(=O)Oc1ccc(C(=O)N2CCN(C(=O)C(=O)c3c[nH]c4cccc(Cl)c34)CC2)cc1` [Example 85], the “% Inhibition @ 10 uM” value is listed as 93%.

For `CC(=O)Oc1cccc(C(=O)N2CCN(C(=O)C(=O)c3c[nH]c4cccc(Cl)c34)CC2)c1` [Example 86], the “% Inhibition @ 10 uM” value is over 98%.

As to `O=C(C(=O)N1CCN(C(=O)c2ccccc2O)CC1)c1c[nH]c2cccc(F)c12` [Example 87], the “% Inhibition @ 10 uM” value came to 86%.

`O=C(C(=O)N1CCN(C(=O)c2cccc(O)c2)CC1)c1c[nH]c2cccc(F)c12` [Example 88]: the “% Inhibition @ 10 uM” value is over 98%.

Turning to `O=C(C(=O)N1CCN(C(=O)c2ccc(O)cc2)CC1)c1c[nH]c2cccc(F)c12` [Example 89], the “% Inhibition @ 10 uM” value was 95%.

By inhibition is commonly meant the relative decrease from the control value, in per cent. As to `C[C@@H]1CN(C(=O)c2ccccn2)CCN1C(=O)C(=O)c1c[nH]c2c(C#N)cccc12` [Example 212], the inhibition at 10 µM (Human immunodeficiency virus 1, HeLa-CD4/CCR5, 72 h, read-out: % Inhibition @ 10 μM) is over 98%.

The values are drawn from US6469006B1, “Antiviral indoleoxoacetyl piperazine derivatives” (priority 1999, dated 2002).
